Results reported in patent US20070099828A1, “BIOMARKERS FOR THE EFFICACY OF CALCITONIN AND PARATHYROID HORMONE TREATMENT” (priority 2003, published 2007).
Values joined by “and” are separate entries in the source; they are usually repeats but may differ in a detail not shown here. Equal entries are not always repeated.

Key:
[1] = Hormone determinations in serum; type: in vivo, cynomolgus monkeys (Macaca fascicularis); settings: males
Source text: (§1) Blood sampling. […] Blood samples were taken from a peripheral vein.

[2] = Blood pressure; type: in vivo, cynomolgus monkeys (Macaca fascicularis); settings: for Blood Pressure Difference: Week 2 vs Week-1; for Blood Pressure Week-1: before dosing
[3] = Urinary analysis
[4] = tested on: liver, kidney, pituitary, muscle, bone, duodenum, spleen and trachea; design: species or system cynomolgus monkeys (Macaca fascicularis); settings: cynomolgus monkey, in vivo
Method: Tissue sampling. Animals were killed by deep anaesthesia induced by intravenous injection of Pentothal®, followed by exsanguinations. All relevant tissues were sampled for histopathology and gene expression profiling. The following tissue samples were processed for analysis: liver, kidney, pituitary, muscle, bone, duodenum, spleen and trachea. Samples for histopathology were fixed in phosphate-buffered 10% formalin. Bone demineralization was performed with 10% formic acid. Tissue samples were embedded in Paraplast® and sectioned at 4 microns, for staining with haematoxylin and eosin. Samples for gene expression profiling were quickly frozen in liquid nitrogen immediately after excision, stored on dry ice and subsequently in a deep-freezer at approximately −80° C. until further use. All selected tissues for gene expression profiling were examined histopathologically.

[5] = cynomolgus monkey, in vivo
Source text: Animals. […] Solvent was used as vehicle for the control group.
The animals used in this analysis were cynomolgus monkeys (Macaca fascicularis), supplied by Centre de Recherches Primatologiques, Port Louis, Mauritius. Two animals were used per group and sex. At the beginning of the treatment period, the animals were at least 24 months old, with a body weight of approximately 3 kg. Animals were kept under standard conditions for animal welfare. Animals were examined daily for mortality, food consumption and clinical observations. Body weight was recorded once per week.

[6] = Haematology; type: in vivo, cynomolgus monkeys (Macaca fascicularis)
Source text: as §1

[7] = urine, females, day −8 (pre-dose)

CC(C)C[C@H](NC(=O)[C@H](CCCCN)NC(=O)CNC(=O)[C@H](CC(C)C)NC(=O)[C@@H](NC(=O)[C@@H]1CSSC[C@H](N)C(=O)N[C@@H](CO)C(=O)N[C@@H](CC(N)=O)C(=O)N[C@@H](CC(C)C)C(=O)N[C@@H](CO)C(=O)N[C@@H]([C@@H](C)O)C(=O)N1)C(C)C)C(=O)N[C@@H](CO)C(=O)N[C@@H](CCC(N)=O)C(=O)N[C@@H](CCC(=O)O)C(=O)N[C@@H](CC(C)C)C(=O)N[C@@H](Cc1c[nH]cn1)C(=O)N[C@@H](CCCCN)C(=O)N[C@@H](CC(C)C)C(=O)N[C@@H](CCC(N)=O)C(=O)N[C@H](C(=O)N[C@@H](Cc1ccc(O)cc1)C(=O)N1CCC[C@H]1C(=O)N[C@@H](CCCNC(=N)N)C(=O)N[C@H](C(=O)N[C@@H](CC(N)=O)C(=O)N[C@H](C(=O)NCC(=O)N[C@@H](CO)C(=O)NCC(=O)N[C@H](C(=O)N1CCC[C@H]1C(N)=O)[C@@H](C)O)[C@@H](C)O)[C@@H](C)O)[C@@H](C)O [Salmon Calcitonin]
ACTH ([1]; day 7): 87 pg/mL and 78 pg/mL
ALDOST ([1]; day 7): 1058 pg/mL and 987 pg/mL
C-PEPTI ([1]; day 7): 1.70 ng/mL and 1.20 ng/mL
CORTISOL ([1]; day 7): 979 nmol/L and 1523 nmol/L
CT ([1]; day 7): 4.0 pg/mL and 2.5 pg/mL
GASTRIN ([1]; day 7): 83 pg/mL and 128 pg/mL
GLUCAG ([1]; day 7): 247 pg/mL and 218 pg/mL
INSULIN ([1]; day 7): 14.0 mU/l and 10.0 mU/l
IPH ([1]; day 7): 75 pg/mL and 62 pg/mL
S.MED ([1]; day 7): 268 ng/mL and 307 ng/mL
T3 ([1]; day 7): 2.35 nmol/L and 1.65 nmol/L
T4 ([1]; day 7): 64 nmol/L and 79 nmol/L
VD25-H ([1]; day 7): 50 nmol/L and 44 nmol/L
ACTH ([1]; day 13): 87 pg/mL and 73 pg/mL
ALDOST ([1]; day 13): 819 pg/mL and 977 pg/mL
C-PEPTI ([1]; day 13): 1.80 ng/mL and 2.30 ng/mL
CORTISOL ([1]; day 13): 1611 nmol/L and 1709 nmol/L
G.H. ([1]; day 13): 16.2 ng/mL and 15.7 ng/mL
GASTRIN ([1]; day 13): 88 pg/mL and 136 pg/mL
GLUCAG ([1]; day 13): 428 pg/mL and 503 pg/mL
INSULIN ([1]; day 13): 17.0 mU/l and 22.0 mU/l
IPH ([1]; day 13): 78 pg/mL and 71 pg/mL
PROLACT ([1]; day 13): 4.6 ng/mL and 6.6 ng/mL
S.MED ([1]; day 13): 332 ng/mL and 384 ng/mL
T3 ([1]; day 13): 2.51 nmol/L and 1.90 nmol/L
T4 ([1]; day 13): 47 nmol/L and 65 nmol/L
VD25-H ([1]; day 13): 49 nmol/L and 45 nmol/L
CORTISOL ([1]; day −6 (pre-dose)): 2316 nmol/L and 1578 nmol/L
CT ([1]; day −6 (pre-dose)): 6.7 pg/mL and 5.1 pg/mL
G.H. ([1]; day −6 (pre-dose)): 11.5 ng/mL and 14.6 ng/mL
GLUCAG ([1]; day −6 (pre-dose)): 905 pg/mL and 869 pg/mL
T3 ([1]; day −6 (pre-dose)): 1.06 nmol/L and 1.48 nmol/L
T4 ([1]; day −6 (pre-dose)): 53 nmol/L and 62 nmol/L
TESTO ([1]; day −6 (pre-dose)): 8.5 nmol/L and 9.5 nmol/L
VD25-H ([1]; day −6 (pre-dose)): 63 nmol/L and 62 nmol/L
ACTH ([1]; day −6 relative to start of dosing (pre-dose)): 98 pg/mL and 115 pg/mL
Blood Pressure Week 2 ([2]; Female, first line per animal): 82 mmHg and 44 mmHg
Blood Pressure Difference ([2]; Female, first line per animal): −16 mmHg and −48 mmHg
Blood Pressure Week-1 ([2]; Female, first line per animal): 98 mmHg and 92 mmHg
Blood Pressure Week 2 ([2]; Female, second line per animal): 25 mmHg and 30 mmHg
Blood Pressure Difference ([2]; Female, second line per animal): −25 mmHg and 4 mmHg
Blood Pressure Week-1 ([2]; Female, second line per animal): 50 mmHg and 26 mmHg
Blood Pressure Week 2 ([2]; Male, first line per animal): 99 mmHg and 79 mmHg
Blood Pressure Difference ([2]; Male, first line per animal): −36 mmHg and −23 mmHg
Blood Pressure Week-1 ([2]; Male, first line per animal): 135 mmHg and 102 mmHg
Blood Pressure Week 2 ([2]; Male, second line per animal): 40 mmHg and 35 mmHg
Blood Pressure Difference ([2]; Male, second line per animal): −21 mmHg
Blood Pressure Week-1 ([2]; Male, second line per animal): 61 mmHg and 56 mmHg
CREAT (urine) ([3]; males, day 13): 4620 µmol/L and 4400 µmol/L
Ca2+ (urine) ([3]; males, day 13): 18.25 mmol/L and 23.40 mmol/L
Cl− (urine) ([3]; males, day 13): 55 mmol/L and 68 mmol/L
I.PHOS (urine) ([3]; males, day 13): 2.50 mmol/L and 3.00 mmol/L
K+ (urine) ([3]; males, day 13): 78 mmol/L and 76 mmol/L
Mg2+ (urine) ([3]; males, day 13): 7.05 mmol/L and 9.80 mmol/L
Na+ (urine) ([3]; males, day 13): 14 mmol/L and 15 mmol/L
VOLUME (urine) ([3]; males, day 13): 68 mL and 54 mL
I.PHOS (urine) ([3]; males, day −6 (before dosing)): 4.35 mmol/L and 5.33 mmol/L
LDH (urine) ([3]; males, day −6 (before dosing)): 9.0 IU/L and 13.0 IU/L
NAG (urine) ([3]; males, day −6 (before dosing)): 2.7 IU/l and 4.2 IU/l
VOLUME (urine) ([3]; males, day −6 (before dosing)): 62 mL and 37 mL
CREAT ([3]; urine, females, day 13): 4800 µmol/L and 4200 µmol/L
Ca2+ ([3]; urine, females, day 13): 17.55 mmol/L and 12.70 mmol/L
Cl− ([3]; urine, females, day 13): 63 mmol/L and 65 mmol/L
I.PHOS ([3]; urine, females, day 13): 5.1 mmol/L and 5.8 mmol/L
K+ ([3]; urine, females, day 13): 53 mmol/L and 57 mmol/L
Mg2+ ([3]; urine, females, day 13): 5.40 mmol/L and 4.85 mmol/L
NAG ([3]; urine, females, day 13): 2.8 IU/l and 2.7 IU/l
Na+ ([3]; urine, females, day 13): 40 mmol/L and 32 mmol/L
VOLUME ([3]; urine, females, day 13 of dosing): 67 mL and 49 mL
CREAT ([3]; urine, females, day −7 (pre-dose)): 6920 µmol/L and 13380 µmol/L
CREAT [3, 7]: 10780 µmol/L and 11260 µmol/L
Ca2+ [3, 7]: 3.00 mmol/L and 3.50 mmol/L
K+ [3, 7]: 104 mmol/L and 172 mmol/L
Mg2+ [3, 7]: 3.35 mmol/L and 3.80 mmol/L
Na+ [3, 7]: 98 mmol/L and 156 mmol/L
inflammatory and regenerative changes in the kidneys [4]: slightly higher incidence
Food Consumption Avg., Both animals [5]: 72.9
L ([6]; females, d 7): 4.61 G/L and 6.21 G/L
MCH ([6]; females, d 7): 18.6 pg and 19.4 pg
MCV ([6]; females, d 7): 64 fL and 68 fL
PCV ([6]; females, d 7): 0.4 l/l and 0.44 l/l
PLAT ([6]; females, d 7): 594 G/L and 356 G/L
RBC ([6]; females, d 7): 6.2 T/l and 6.6 T/l
WBC ([6]; females, d 7): 9.5 G/l and 17 G/l
monocyte count ([6]; females, d 7): 0.63 G/l and 0.82 G/l
B ([6]; females, d 13): 0.03 G/L and 0.05 G/L
L ([6]; females, d 13): 5.18 G/L and 6.58 G/L
MCH ([6]; females, d 13): 19.5 pg
MCV ([6]; females, d 13): 64 fL and 65 fL
PCV ([6]; females, d 13): 0.33 l/l and 0.37 l/l
PLAT ([6]; females, d 13): 451 G/L and 229 G/L
RBC ([6]; females, d 13): 5.2 T/l and 5.7 T/l
WBC ([6]; females, d 13): 12 G/l and 13.3 G/l
monocyte count ([6]; females, d 13): 0.69 G/l and 0.39 G/l
B ([6]; females, d −8 (before dosing)): 0.02 G/L and 0.01 G/L
E ([6]; females, d −8 (before dosing)): 0.03 G/L
L ([6]; females, d −8 (before dosing)): 3.26 G/L and 4.79 G/L
MCH ([6]; females, d −8 (before dosing)): 19.1 pg and 19.8 pg
MCV ([6]; females, d −8 (before dosing)): 61 fL and 65 fL
PCV ([6]; females, d −8 (before dosing)): 0.4 l/l and 0.45 l/l
PLAT ([6]; females, d −8 (before dosing)): 549 G/L and 304 G/L
RBC ([6]; females, d −8 (before dosing)): 6.5 T/l and 7 T/l
WBC ([6]; females, d −8 (before dosing)): 7 G/l and 8.3 G/l
monocyte count ([6]; females, d −8 (before dosing)): 0.25 G/l and 0.3 G/l
B ([6]; males, d 7): 0.04 G/l
E ([6]; males, d 7): 0.10 G/l and 0.09 G/l
HB ([6]; males, d 7): 11.7 g/dL and 11.5 g/dL
L ([6]; males, d 7): 6.79 G/l and 5.57 G/l
M ([6]; males, d 7): 0.73 G/l and 0.45 G/l
MCH ([6]; males, d 7): 19.9 pg and 19.2 pg
MCHC ([6]; males, d 7): 30.3 g/dL and 31.3 g/dL
MCV ([6]; males, d 7): 66 fL and 62 fL
PCV ([6]; males, d 7): 0.39 l/l and 0.37 l/l
PLAT ([6]; males, d 7): 396 G/l and 330 G/l
RBC ([6]; males, d 7): 5.9 T/l and 6.0 T/l
WBC ([6]; males, d 7): 11.8 G/l and 9.5 G/l
B ([6]; males, d 13): 0.03 G/l
HB ([6]; males, d 13): 11.2 g/dL and 10.3 g/dL
L ([6]; males, d 13): 5.38 G/l and 4.92 G/l
M ([6]; males, d 13): 0.57 G/l and 0.76 G/l
MCH ([6]; males, d 13): 20.2 pg and 19.2 pg
MCHC ([6]; males, d 13): 29.0 g/dL and 28.7 g/dL
MCV ([6]; males, d 13): 70 fL and 67 fL
PCV ([6]; males, d 13): 0.39 l/l and 0.36 l/l
PLAT ([6]; males, d 13): 302 G/l and 389 G/l
RBC ([6]; males, d 13): 5.6 T/l and 5.4 T/l
WBC ([6]; males, d 13): 8.0 G/l and 8.8 G/l
HB ([6]; males, d −6 (before dosing)): 12.6 g/dL and 13.6 g/dL
L ([6]; males, d −6 (before dosing)): 4.00 G/l and 6.55 G/l
MCH ([6]; males, d −6 (before dosing)): 20.2 pg and 19.7 pg
MCHC ([6]; males, d −6 (before dosing)): 31.4 g/dL and 32.0 g/dL
MCV ([6]; males, d −6 (before dosing)): 64 fL and 62 fL
PCV ([6]; males, d −6 (before dosing)): 0.40 l/l and 0.43 l/l
PLAT ([6]; males, d −6 (before dosing)): 351 G/l and 247 G/l
RBC ([6]; males, d −6 (before dosing)): 6.3 T/l and 6.9 T/l
WBC ([6]; males, d −6 (before dosing)): 7.7 G/l and 11.5 G/l
